Measured values taken from US8822503B2, “2-pyridone compounds” (Taisho Pharmaceutical Co., Ltd, priority 2009, dated 2014).
pEC50: −log10 of the molar value.

Target: T1, human liver GK (Homo sapiens, UniProt P35557)
T1 construct: GST (glutathione S-transferase) (N); made in house; host or cells: E. coli
T1 sequence (P35557 1-466 isoform P35557-2): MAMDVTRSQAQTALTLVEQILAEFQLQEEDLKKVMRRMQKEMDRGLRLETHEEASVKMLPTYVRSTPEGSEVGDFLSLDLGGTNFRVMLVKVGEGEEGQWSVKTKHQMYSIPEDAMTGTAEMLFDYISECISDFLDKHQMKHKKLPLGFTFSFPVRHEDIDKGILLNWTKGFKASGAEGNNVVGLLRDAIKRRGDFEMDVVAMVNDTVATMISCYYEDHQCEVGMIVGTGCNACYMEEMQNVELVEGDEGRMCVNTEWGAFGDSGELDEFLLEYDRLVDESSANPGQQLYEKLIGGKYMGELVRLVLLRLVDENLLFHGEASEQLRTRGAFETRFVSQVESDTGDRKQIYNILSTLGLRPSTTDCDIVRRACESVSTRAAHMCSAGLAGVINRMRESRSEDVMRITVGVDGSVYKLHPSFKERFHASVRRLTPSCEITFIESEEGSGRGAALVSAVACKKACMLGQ
Assay: GK activation test
Type: biochemical
Conditions: test compound concentration needed to activate 50% of maximum activation ability; 4 mM 14C-labeled glucose, 2 mM ATP, room temperature, 20 minutes
Summary of the method: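 GST-tagged human liver GK from E. coli (0.24 μg/well) with 4 mM 14C-glucose, 2 mM ATP in Hepes-KOH pH 7.1, KCl, MgCl2, DTT, 1% DMSO, 20 min room temperature. Labeled glucose 6-phosphate captured on anion resin, eluted and counted. EC50 = concentration giving half of maximal activation.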

SMILES	pEC50
CC(C)(C)c1ccc(/C(=C\CCN2CCCC2=O)c2ccc(Cl)c(=O)[nH]2)cc1 [Example 6-27, 6-[(1E)-1-(4-tert-Butylphenyl)-4-(2-oxopyrrolidin-1-yl)but-1-en-1-yl]-3-chloropyridin-2(1H)-one]	5.52 to 6.30
CCc1ccc(/C(=C/C2CCCC2)c2ccc(S(C)(=O)=O)c(Cl)c2)[nH]c1=O [Example 1-21, 6-{(E)-1-[3-Chloro-4-(methylsulfonyl)phenyl]-2-cyclopentylethenyl}-3-ethylpyridin-2(1H)-one]	6.30 to 8.00
Cc1ccc(C(C[C@H]2CCC(=O)N2)c2ccc(Cl)c(=O)[nH]2)cc1 (single isomer, unassigned) [Example 4-318]	5.00 to 5.52
CSc1ccc(/C(=C/[C@H]2CCC(=O)N2)c2ccc(C(C)(C)C)cc2)[nH]c1=O [Example 4-206, 6-{(E)-1-(4-tert-Butylphenyl)-2-[(2R)-5-oxopyrrolidin-2-yl]ethenyl}-3-(methylsulfanyl)pyridin-2(1H)-one]	6.30 to 8.00
CC(C)c1ccc(/C(=C\[C@H]2CCC(=O)N2C)c2ccc(Cl)c(=O)[nH]2)cc1 [Example 4-147, 3-Chloro-6-{(E)-2-[(2R)-1-methyl-5-oxopyrrolidin-2-yl]-1-[4-(propan-2-yl)phenyl]ethenyl}pyridin-2(1H)-one]	6.30 to 8.00
CCCc1ccc(/C(=C/[C@H]2CCC(=O)N2)c2ccc(C(C)(C)C)cc2)[nH]c1=O [Example 4-192, 6-{(E)-1-(4-tert-Butylphenyl)-2-[(2R)-5-oxopyrrolidin-2-yl]ethenyl}-3-propylpyridin-2(1H)-one]	6.30 to 8.00
COc1ccc(/C(=C\[C@H]2CC[C@H](O)CC2)c2ccc(C3CC3)c(=O)[nH]2)cc1Cl [Example 1-89, 6-[(E)-1-(3-Chloro-4-methoxyphenyl)-2-(trans-4-hydroxycyclohexyl)ethenyl]-3-cyclopropylpyridin-2(1H)-one]	5.52 to 6.30
Cc1cc(C(C[C@H]2CCC(=O)N2)c2ccc(C3CC3)c(=O)[nH]2)ccc1F (single isomer, unassigned) [Example 4-224]	5.00 to 5.52
COC(=O)c1ccc(/C(=C\C2CCCC2)c2ccc(C)c(=O)[nH]2)cc1 [Example 1-33, Methyl 4-[(E)-2-cyclopentyl-1-(5-methyl-6-oxo-1,6-dihydropyridin-2-yl)ethenyl]benzoate]	5.52 to 6.30
COc1cc(C(C[C@H]2CCC(=O)N2)c2ccc(C3CC3)c(=O)[nH]2)ccc1Cl (single isomer, unassigned) [Example 4-227]	5.52 to 6.30
O=c1[nH]c(/C(=C/CCCO)c2ccc(S(=O)(=O)C3CC3)cc2)ccc1C(F)(F)F [Example 1-99, 6-{(1E)-1-[4-(Cyclopropylsulfonyl)phenyl]-5-hydroxypent-1-en-1-yl}-3-(trifluoromethyl)pyridin-2(1H)-one]	5.52 to 6.30
CCCc1ccc(C(C[C@H]2CCC(=O)N2)c2ccc(C(F)(F)F)cc2)[nH]c1=O (single isomer, unassigned) [Example 4-242]	5.52 to 6.30
O=C1CC[C@H](CC(c2ccc(C3CC3)c(=O)[nH]2)c2ccc(C(F)(F)F)cc2F)N1 (single isomer, unassigned) [Example 4-332]	5.52 to 6.30
CCN(CC)CCCOc1ccc(/C(=C\[C@H]2CCC(=O)C2)c2ccc(C(F)(F)F)c(=O)[nH]2)cc1Cl [Example 1-83, 6-{(E)-1-{3-Chloro-4-[3-(diethylamino)propoxy]phenyl}-2-[(1S)-3-oxocyclopentyl]ethenyl}-3-(trifluoromethyl)pyridin-2(1H)-one]	5.52 to 6.30
CNC(=O)c1ccc(/C(=C\[C@H]2CCC(=O)N2)c2ccc(Cl)c(=O)[nH]2)cc1 [Example 4-159, 4-{(E)-1-(5-Chloro-6-oxo-1,6-dihydropyridin-2-yl)-2-[(2R)-5-oxopyrrolidin-2-yl]ethenyl}-N-methylbenzamide]	5.00 to 5.52
O=C1CC[C@H](CC(c2ccc(Cl)c(C(F)(F)F)c2)c2ccc(C3CC3)c(=O)[nH]2)N1 (single isomer, unassigned) [Example 4-222]	5.00 to 5.52
Cc1ccc(C(C[C@H]2CCC(=O)N2)c2ccc(Cl)c(=O)[nH]2)cc1Cl (single isomer, unassigned) [Example 4-310]	5.52 to 6.30
CCc1ccc(/C(=C\[C@H]2CCC(=O)N2)c2ccc(Cl)c(=O)[nH]2)cc1Cl [Example 4-257, 3-Chloro-6-{(E)-1-(3-chloro-4-ethylphenyl)-2-[(2R)-5-oxopyrrolidin-2-yl]ethenyl}pyridin-2(1H)-one]	6.30 to 8.00
O=C1CC[C@H](/C=C(\c2ccc(S(=O)(=O)C3CC3)c(Cl)c2)c2ccc(Cl)c(=O)[nH]2)N1 [Example 4-59, 3-Chloro-6-{(E)-1-[3-chloro-4-(cyclopropylsulfonyl)phenyl]-2-[(2R)-5-oxopyrrolidin-2-yl]ethenyl}pyridin-2(1H)-one]	6.30 to 8.00
Cc1cc(/C(=C\[C@H]2CCC(=O)N2)c2ccc(C3CC3)c(=O)[nH]2)ccc1S(=O)(=O)C1CC1 [Example 4-54, 3-Cyclopropyl-6-{(E)-1-[4-(cyclopropylsulfonyl)-3-methylphenyl]-2-[(2R)-5-oxopyrrolidin-2-yl]ethenyl}pyridin-2(1H)-one]	6.30 to 8.00
O=C1CC[C@H](/C=C(\c2ccc(S(=O)(=O)C3CC3)c(Cl)c2)c2ccc(C3CC3)c(=O)[nH]2)N1 [Example 4-289, 6-{(E)-1-[3-Chloro-4-(cyclopropylsulfonyl)phenyl]-2-[(2R)-5-oxopyrrolidin-2-yl]ethenyl}-3-cyclopropylpyridin-2(1H)-one]	6.30 to 8.00
CC(C)(C)c1ccc(/C(=C\CN2CCOC2=O)c2ccc(Cl)c(=O)[nH]2)cc1 [Example 6-2, 6-[(1E)-1-(4-tert-Butylphenyl)-3-(2-oxo-1,3-oxazolidin-3-yl)prop-1-en-1-yl]-3-chloropyridin-2(1H)-one]	6.30 to 8.00

Results, then the molecule that gave them:

pEC50	SMILES
5.00 to 5.52	O=C1CC[C@H](/C=C(/c2ccc(Cl)c(=O)[nH]2)c2cccc3ccccc23)N1 [Example 4-150, 3-Chloro-6-{(E)-1-(naphthalen-1-yl)-2-[(2R)-5-oxopyrrolidin-2-yl]ethenyl}pyridin-2(1H)-one]
6.30 to 8.00	O=C1CC[C@H](/C=C(\c2ccc(OC3CC3)c(Cl)c2)c2ccc(C3CC3)c(=O)[nH]2)N1 [Example 4-269, 6-{(E)-1-[3-Chloro-4-(cyclopropyloxy)phenyl]-2-[(2R)-5-oxopyrrolidin-2-yl]ethenyl}-3-cyclopropylpyridin-2(1H)-one]
5.52 to 6.30	O=C1CC[C@H](/C=C(\c2ccc(-c3ccccc3)cc2)c2ccc(Cl)c(=O)[nH]2)N1 [Example 4-151, 6-{(E)-1-(Biphenyl-4-yl)-2-[(2R)-5-oxopyrrolidin-2-yl]ethenyl}-3-chloropyridin-2(1H)-one]
5.00 to 5.52	O=C1CC[C@H](CC(c2ccc(S(=O)(=O)C3CC3)cc2)c2ccc(C3CC3)c(=O)[nH]2)N1 (single isomer, unassigned) [Example 4-307]
5.52 to 6.30	CCN(CC)CCNC(=O)c1ccc(/C(=C\C2CCCC2)c2ccc(C3CC3)c(=O)[nH]2)cc1 [Example 1-45, 4-[(E)-2-Cyclopentyl-1-(5-cyclopropyl-6-oxo-1,6-dihydropyridin-2-yl)ethenyl]-N-[2-(diethylamino)ethyl]benzamide]
5.52 to 6.30	CCOc1ccc(/C(=C\[C@H]2CCC(=O)N2)c2ccc(Cl)c(=O)[nH]2)cc1C(F)(F)F [Example 4-51, 3-Chloro-6-{(E)-1-[4-ethoxy-3-(trifluoromethyl)phenyl]-2-[(2R)-5-oxopyrrolidin-2-yl]ethenyl}pyridin-2(1H)-one]
5.00 to 5.52	CC(=O)NCC/C=C(\c1ccc(S(C)(=O)=O)cc1)c1ccc(C2CC2)c(=O)[nH]1 [Example 1-95, N-{(3E)-4-(5-Cyclopropyl-6-oxo-1,6-dihydropyridin-2-yl)-4-[4-(methylsulfonyl)phenyl]but-3-en-1-yl}acetamide]
5.00 to 5.52	CN1CCN(S(=O)(=O)c2ccc(C(CC3CCCC3)c3ccc(Cl)c(=O)[nH]3)cc2)CC1 (centres unmarked) [Example 2-24, 3-Chloro-6-(2-cyclopentyl-1-{4-[(4-methylpiperazin-1-yl)sulfonyl]phenyl}ethyl)pyridin-2(1H)-one]
5.00 to 5.52	Cc1ccc(C(CC2CCC(=O)CC2)c2ccc(S(C)(=O)=O)cc2)[nH]c1=O (centres unmarked) [Example 2-21, 3-Methyl-6-{1-[4-(methylsulfonyl)phenyl]-2-(4-oxocyclohexyl)ethyl}pyridin-2(1H)-one]
6.30 to 8.00	O=C1CC[C@H](/C=C(\c2ccc(Cl)c(Cl)c2)c2ccc(C3CC3)c(=O)[nH]2)N1 [Example 4-101, 3-Cyclopropyl-6-{(E)-1-(3,4-dichlorophenyl)-2-[(2R)-5-oxopyrrolidin-2-yl]ethenyl}pyridin-2(1H)-one]
5.00 to 5.52	Cc1cc(C(C[C@H]2CCC(=O)N2)c2ccc(C3CC3)c(=O)[nH]2)ccc1S(=O)(=O)C1CC1 (single isomer, unassigned) [Example 4-299]
5.52 to 6.30	CC(C)c1ccc(C(C[C@H]2CCC(=O)N2)c2ccc(Cl)c(=O)[nH]2)cc1 (single isomer, unassigned) [Example 4-85]
5.00 to 5.52	O=c1[nH]c(/C(=C/CCCO)c2ccc(SC3CC3)cc2)ccc1C(F)(F)F [Example 1-98, 6-{(1E)-1-[4-(Cyclopropylsulfanyl)phenyl]-5-hydroxypent-1-en-1-yl}-3-(trifluoromethyl)pyridin-2(1H)-one]
